Assay results: patent publication US12281122B1, “PI3K inhibitors” (Cogent Biosciences, Inc., priority 2023, dated 2025)

Experiments:
[1] = test system: SKBR3 (PI3Kα-Wild Type) cell line; assay: HTRF phospho-AKT(S473) cell assay in SKBR3 cells; type: cell-based, human; conditions: Homo sapiens, SK-BR-3; SKBR3 (PI3Kα-Wild Type) cells, HTRF phospho-AKT(S473), 2 hours compound incubation, PDGF-BB stimulated
In short: (§1)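 T47D (PI3Kα-H1047R; RPMI, 10% FBS, insulin) and SKBR3 (wild-type PI3Kα; McCoy's 5A, 10% FBS) cells treated 2 h at 37 °C with 12-point 1:3 dilutions, top 5 μM and 10 μM respectively, ≤0.5% DMSO. SKBR3 stimulated with 70 ng/ml PDGF-BB for the last 15 min; lysate pAKT(S473) by HTRF, IC50 from curves.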

[2] = test system: T47D (PI3Kα-H1047R) cell line; assay: HTRF phospho-AKT(S473) cell assay in T47D cells; type: cell-based, human; conditions: Homo sapiens; T47D (PI3Kα-H1047R) cells, HTRF phospho-AKT(S473), 2 hours compound incubation
In short: as §1

[3] = target: PI3Kα H1047R (Homo sapiens, UniProt P42336, H1047R); assay: PI3Kα H1047R enzyme assay (Transcreener ADP2 TR-FRET Red Assay); type: biochemical; conditions: purified recombinant full-length protein; 2 hours pre-incubation with compound
In short: (§2)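 IC50 taken at 50 POC from a four-parameter logistic fit of TR-FRET (665/615 nm) ADP signal. Reactions used full-length recombinant enzyme, compound pre-incubation for 2 h, then 60 min with ATP and PI(4,5)P2 diC8 substrate at room temperature, pH 7.5 HEPES buffer with 25 mM MgCl2; compounds tested from 50,000 to 0.85 nM.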

[4] = target: PI3Kα (Homo sapiens, UniProt P42336); assay: PI3Kα enzyme assay (Transcreener ADP2 TR-FRET Red Assay); type: biochemical; conditions: purified recombinant full-length protein; 2 hours pre-incubation with compound; read-out: PI3Kα WT IC50
In short: as §2

Chain of PI3Kα (P42336 whole entry): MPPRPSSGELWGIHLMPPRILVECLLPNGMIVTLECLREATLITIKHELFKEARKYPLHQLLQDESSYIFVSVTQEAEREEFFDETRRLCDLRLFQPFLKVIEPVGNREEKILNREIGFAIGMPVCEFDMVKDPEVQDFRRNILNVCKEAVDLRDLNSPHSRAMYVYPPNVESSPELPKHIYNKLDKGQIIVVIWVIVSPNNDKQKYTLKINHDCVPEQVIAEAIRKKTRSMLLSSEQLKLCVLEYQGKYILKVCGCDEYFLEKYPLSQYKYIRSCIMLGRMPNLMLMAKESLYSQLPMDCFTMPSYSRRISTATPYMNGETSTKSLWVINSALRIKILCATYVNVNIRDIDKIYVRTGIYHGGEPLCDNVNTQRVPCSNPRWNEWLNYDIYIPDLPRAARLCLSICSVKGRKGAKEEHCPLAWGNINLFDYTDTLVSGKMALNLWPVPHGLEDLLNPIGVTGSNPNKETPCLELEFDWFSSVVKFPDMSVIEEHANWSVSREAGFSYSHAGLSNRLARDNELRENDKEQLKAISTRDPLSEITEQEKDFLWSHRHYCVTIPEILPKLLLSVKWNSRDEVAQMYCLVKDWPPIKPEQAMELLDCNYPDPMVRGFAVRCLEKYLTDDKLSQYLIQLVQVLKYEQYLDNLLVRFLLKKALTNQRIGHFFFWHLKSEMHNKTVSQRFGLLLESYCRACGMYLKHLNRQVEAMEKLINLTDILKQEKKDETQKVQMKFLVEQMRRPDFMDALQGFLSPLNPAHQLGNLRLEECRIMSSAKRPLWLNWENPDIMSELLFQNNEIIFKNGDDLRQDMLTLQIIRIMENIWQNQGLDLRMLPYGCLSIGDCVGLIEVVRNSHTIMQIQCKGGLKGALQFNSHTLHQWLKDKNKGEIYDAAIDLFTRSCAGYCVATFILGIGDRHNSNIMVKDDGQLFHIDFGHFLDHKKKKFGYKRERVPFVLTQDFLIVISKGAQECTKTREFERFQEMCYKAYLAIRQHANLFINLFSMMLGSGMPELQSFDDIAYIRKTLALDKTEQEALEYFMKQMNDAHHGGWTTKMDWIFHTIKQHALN
Chain of PI3Kα (P27986 2-724 partner): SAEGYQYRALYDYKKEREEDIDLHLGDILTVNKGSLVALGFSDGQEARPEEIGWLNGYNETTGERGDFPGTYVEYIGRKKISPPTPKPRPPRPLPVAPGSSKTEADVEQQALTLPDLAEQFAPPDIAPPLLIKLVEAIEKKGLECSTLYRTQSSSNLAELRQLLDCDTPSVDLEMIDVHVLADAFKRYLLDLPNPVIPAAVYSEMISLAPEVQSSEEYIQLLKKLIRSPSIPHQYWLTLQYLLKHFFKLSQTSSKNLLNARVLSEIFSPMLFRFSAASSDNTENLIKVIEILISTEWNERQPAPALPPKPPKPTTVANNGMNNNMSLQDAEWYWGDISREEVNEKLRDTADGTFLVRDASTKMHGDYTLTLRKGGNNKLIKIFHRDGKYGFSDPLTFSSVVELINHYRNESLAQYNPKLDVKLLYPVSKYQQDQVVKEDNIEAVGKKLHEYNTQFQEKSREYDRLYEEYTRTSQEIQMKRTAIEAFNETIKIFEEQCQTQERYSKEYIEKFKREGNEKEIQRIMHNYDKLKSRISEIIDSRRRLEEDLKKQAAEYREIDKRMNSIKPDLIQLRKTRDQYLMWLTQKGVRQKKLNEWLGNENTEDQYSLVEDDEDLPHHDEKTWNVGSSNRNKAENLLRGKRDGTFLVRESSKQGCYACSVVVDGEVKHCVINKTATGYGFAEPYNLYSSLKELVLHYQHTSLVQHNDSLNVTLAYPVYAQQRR
Chain of PI3Kα H1047R (P42336 whole entry H1047R): as the sequence (P42336 whole entry) above, with H1047R counted along it
Chain of PI3Kα H1047R (P27986 2-724 partner): as the sequence (P27986 2-724 partner) above

Row | SMILES | IC50 [1] [nM] | IC50 [2] [nM] | IC50 [3] [nM] | IC50 [4] [nM]
1 | CCC(=O)NS(=O)(=O)c1nc(Cl)ccc1N[C@H](C)c1cc(C)cc2c(=O)n(C)c(N3Cc4ccc(F)cc4C3)nc12 [Compound 81, (R)-N-((6-chloro-3-((1-(2-(5-fluoroisoindolin-2-yl)-3,6-dimethyl-4-oxo-3,4-dihydroquinazolin-8-yl)ethyl)amino)pyridin-2-yl)sulfonyl)propionamide] | ≥ 5000 | 250 to 500 | < 100 | ≥ 1000
2 | Cc1cc([C@@H](C)Nc2ccc(Cl)nc2C(=O)NS(C)(=O)=O)c2nc(NCCC3CC3)n(C)c(=O)c2c1 [Compound 18, (R)-6-chloro-3-((1-(2-((2-cyclopropylethyl)amino)-3,6-dimethyl-4-oxo-3,4-dihydroquinazolin-8-yl)ethyl)amino)-N-(methylsulfonyl) picolinamide] | ≥ 5000 | 1000 to 5000 | ≥ 1000 | ≥ 1000
3 | Cc1cc([C@@H](C)Nc2cn(C)nc2C(N)=O)c2nc(N3Cc4ccc(F)cc4C3)n(C)c(=O)c2c1 (single isomer, unassigned) [Compound 108] | ≥ 5000 | 1000 to 5000 | ≥ 1000 | ≥ 1000
4 | COc1nc(Cl)ccc1N[C@H](C)c1cc(C)cc2c(=O)n(C)c(N3Cc4ccc(F)cc4C3)nc12 [Compound 96, (R)-8-(1-((6-chloro-2-methoxypyridin-3-yl)amino)ethyl)-2-(5-fluoroisoindolin-2-yl)-3,6-dimethylquinazolin-4(3H)-one] | ≥ 5000 | 1000 to 5000 | ≥ 1000 | ≥ 1000
5 | Cc1cc([C@@H](C)Nc2ccc(Cl)nc2S(=O)(=O)NC(=O)N(C)C)c2nc(N3Cc4ccc(F)cc4C3)n(C)c(=O)c2c1 [Compound 71, (R)-6-chloro-N-(dimethylcarb-amoyl)-3-((1-(2-(5-fluoroisoindolin-2-yl)-3,6-dimethyl-4-oxo-3,4-dihydroquinazolin-8-yl)ethyl)amino)pyridine-2-sulfonamide] | ≥ 5000 | 1000 to 5000 | ≥ 1000 | ≥ 1000
6 | Cc1cc([C@H](C)Nc2cn(C)nc2C(=O)NS(C)(=O)=O)c2nc(N3Cc4ccc(F)cc4C3)n(C)c(=O)c2c1 (single isomer, unassigned) [Compound 107, 4-((1-(2-(5-fluoroisoindolin-2-yl)-3,6-dimethyl-4-oxo-3,4-dihydroquinazolin-8-yl)ethyl)amino)-1-methyl-N-(methylsulfonyl)-1H-pyrazole-3-carboxamide] | ≥ 5000 | 1000 to 5000 | ≥ 1000 | ≥ 1000
7 | Cc1cc([C@H](C)Nc2ccccc2S(N)(=O)=O)c2nc(N3Cc4ccc(F)cc4C3)n(C)c(=O)c2c1 (single isomer, unassigned) [Compound 105, 2-((1-(2-(5-fluoroisoindolin-2-yl)-3,6-dimethyl-4-oxo-3,4-dihydroquinazolin-8-yl)ethyl)amino) benzenesulfonamide] | ≥ 5000 | 1000 to 5000 | ≥ 1000 | ≥ 1000
8 | Cc1cc([C@@H](C)Nc2ccc[nH]c2=O)c2nc(N3Cc4ccc(F)cc4C3)n(C)c(=O)c2c1 [Compound 94, (R)-2-(5-fluoroisoindolin-2-yl)-3,6-dimethyl-8-(1-((2-oxo-1,2-dihydropyridin-3-yl)amino)ethyl)quinazolin-4(3H)-one] | ≥ 5000 | 1000 to 5000 | ≥ 1000 | ≥ 1000
9 | Cc1cc([C@@H](C)Nc2ccccc2S(N)(=O)=O)c2nc(N3Cc4ccc(F)cc4C3)n(C)c(=O)c2c1 (single isomer, unassigned) [Compound 104, 2-((1-(2-(5-fluoroisoindolin-2-yl)-3,6-dimethyl-4-oxo-3,4-dihydroquinazolin-8-yl)ethyl)amino) benzenesulfonamide] | ≥ 5000 | 250 to 500 | ≥ 1000 | ≥ 1000
10 | Cc1cc([C@@H](C)Nc2ccc(Cl)nc2C(=O)NS(=O)(=O)N(C)C)c2nc(N3Cc4ccc(F)cc4C3)n(C)c(=O)c2c1 [Compound 67, (R)-6-chloro-N-(N,N-dimethyl-sulfamoyl)-3-((1-(2-(5-fluoro-isoindolin-2-yl)-3,6-dimethyl-4-oxo-3,4-dihydroquinazolin-8-yl)ethyl)amino)picolinamide] | ≥ 5000 | 500 to 1000 | ≥ 1000 | ≥ 1000

Now from value to compound:

Row | IC50 [1] [nM] | IC50 [2] [nM] | IC50 [3] [nM] | IC50 [4] [nM] | SMILES
11 | ≥ 5000 | 1000 to 5000 | ≥ 1000 | ≥ 1000 | C[C@@H](Nc1ccc(Cl)nc1C(=O)NS(C)(=O)=O)c1cc(F)cc2c(=O)n(C)c(-c3cccc(F)c3F)nc12 [Compound 87, (R)-6-chloro-3-((1-(2-(2,3-difluorophenyl)-6-fluoro-3-methyl-4-oxo-3,4-dihydroquinazolin-8-yl)ethyl)amino)-N-(methylsulfonyl) picolinamide]
12 | 1000 to 5000 | 250 to 500 | ≥ 1000 | ≥ 1000 | Cc1cc([C@@H](C)Nc2ccc(Cl)nc2C(=O)NS(C)(=O)=O)c2nc(-c3ccc(C)nc3)n(C)c(=O)c2c1 [Compound 84, (R)-6-chloro-3-((1-(3,6-dimethyl-2-(6-methylpyridin-3-yl)-4-oxo-3,4-dihydroquinazolin-8-yl)ethyl)amino)-N-(methylsulfonyl) picolinamide]
13 | 1000 to 5000 | 250 to 500 | 500 to 1000 | ≥ 1000 | Cc1cc([C@@H](C)Nc2ccc(Cl)nc2C(=O)NS(C)(=O)=O)c2nc(N3CCC(F)(F)C[C@@H]3C)n(C)c(=O)c2c1 (single isomer, unassigned) [Compound 42, 6-chloro-3-(((R)-1-(2-((R*)-4,4-difluoro-2-methylpiperidin-1-yl)-3,6-dimethyl-4-oxo-3,4-dihydroquinazolin-8-yl)ethyl)amino)-N-(methylsulfonyl) picolinamide]
14 | 1000 to 5000 | < 250 | 100 to 250 | ≥ 1000 | Cc1cc([C@@H](C)Nc2ccc(Cl)nc2C(=O)NS(C)(=O)=O)c2nc(N(C)Cc3cnn(C)c3)n(C)c(=O)c2c1 [Compound 48, (R)-6-chloro-3-((1-(3,6-dimethyl-2-(methyl((1-methyl-1H-pyrazol-4-yl)methyl)amino)-4-oxo-3,4-dihydroquinazolin-8-yl)ethyl)amino)-N-(methylsulfonyl) picolinamide]
15 | ≥ 5000 | 1000 to 5000 | ≥ 1000 | ≥ 1000 | Cc1ccc(N[C@H](C)c2cc(F)cc3c(=O)n(C)c(N4Cc5ccc(F)cc5C4)nc23)c(C(=O)NS(C)(=O)=O)n1 [Compound 61, (R)-3-((1-(6-fluoro-2-(5-fluoroisoindolin-2-yl)-3-methyl-4-oxo-3,4-dihydro-quinazolin-8-yl)ethyl)amino)-6-methyl-N-(methylsulfonyl) picolinamide]
16 | 1000 to 5000 | 250 to 500 | 250 to 500 | ≥ 1000 | Cc1cc([C@@H](C)Nc2ccc(Cl)nc2C(=O)NS(C)(=O)=O)c2nc(N3CCC3)n(C)c(=O)c2c1 [Compound 15]
17 | ≥ 5000 | 1000 to 5000 | ≥ 1000 | ≥ 1000 | Cc1cc([C@@H](C)Nc2cc(C)c(F)nc2C(=O)NS(C)(=O)=O)c2nc(N3Cc4ccc(F)cc4C3)n(C)c(=O)c2c1 [Compound 69, (R)-6-fluoro-3-((1-(2-(5-fluoro-isoindolin-2-yl)-3,6-dimethyl-4-oxo-3,4-dihydroquinazolin-8-yl)ethyl)amino)-5-methyl-N-(methylsulfonyl)picolinamide]
18 | 1000 to 5000 | < 250 | < 100 | ≥ 1000 | Cc1cc([C@@H](C)Nc2ccc(Cl)nc2C(=O)NS(C)(=O)=O)c2nc(C3CCCCC3)n(C)c(=O)c2c1 [Compound 92, (R)-6-chloro-3-((1-(2-cyclohexyl-3,6-dimethyl-4-oxo-3,4-dihydroquinazolin-8-yl)ethyl)amino)-N-(methylsulfonyl) picolinamide]
19 | 1000 to 5000 | 1000 to 5000 | < 100 | ≥ 1000 | Cc1cc([C@@H](C)Nc2ccc(F)cc2C(=O)NS(C)(=O)=O)c2nc(N3CCC(F)(F)CC3)n(C)c(=O)c2c1 [Compound 62, (R)-2-((1-(2-(4,4-difluoropiperidin-1-yl)-3,6-dimethyl-4-oxo-3,4-dihydroquinazolin-8-yl)ethyl)amino)-5-fluoro-N-(methyl-sulfonyl)benzamide]
20 | 1000 to 5000 | 250 to 500 | 500 to 1000 | ≥ 1000 | Cc1cc([C@@H](C)Nc2ccc(Cl)nc2C(=O)NS(C)(=O)=O)c2nc(N3CC4(C3)CC(F)(F)C4)n(C)c(=O)c2c1 [Compound 9, (R)-6-chloro-3-((1-(2-(6,6-difluoro-2-azaspiro[3.3]heptan-2-yl)-3,6-dimethyl-4-oxo-3,4-dihydroquinazolin-8-yl)ethyl)amino)-N-(methylsulfonyl) picolinamide]
21 | 1000 to 5000 | 250 to 500 | 250 to 500 | ≥ 1000 | Cc1cc([C@@H](C)Nc2ccc(Cl)nc2C(=O)NS(C)(=O)=O)c2nc(NCC3CC3)n(C)c(=O)c2c1 [Compound 8, (R)-6-chloro-3-((1-(2-((cyclopropylmethyl)amino)-3,6-dimethyl-4-oxo-3,4-dihydroquinazolin-8-yl)ethyl)amino)-N-(methylsulfonyl) picolinamide]
